PMC5453931, “Cathelicidin-trypsin inhibitor loop conjugate represents a promising antibiotic candidate with protease stability” (Scientific Reports, 2017)
In brackets after ≈: the same amount, converted by molar mass. Like-named read-outs stand apart in the source and are kept apart here.

Assays:
[1] = test system: E. coli 08040726; assay type: cell-based; conditions: Gram-negative, two-fold broth microdilution, MH broth, 37 °C, 18 h, mean of three independent experiments in duplicates
Procedure: (§1) A two-fold broth microdilution method described in our previous paper was used to determine the antimicrobial activities of parental and hybrid peptides. More than 30 strains including Gram-negative bacteria, Gram-positive bacteria and fungi were used in the current assay, in which the standard strains were stored in our lab and the clinical strains were collected from local hospitals. Briefly, bacteria were incubated in Mueller-Hinton broth (MH broth) at 37 °C to exponential phase and diluted to 10^6 CFU/mL. A serial dilution of peptide sample were prepared in 96-well microtiter plates (50 μL) and mixed with equal volume of microbial inoculums (50 μL). The plate was slowly shaken in the microbial incubator, and measured at A595 after incubation at 37 °C for 18 h. The minimal concentrations at which no microbial growth occurred were recorded as MIC (minimal inhibitory concentration) values. The traditional antibiotic ampicillin was used as positive control. The results are shown in an average of the MICs obtained from three independent experiments.

[2] = test system: E. coli 08040726; test: MIC, two-fold broth microdilution (second listing of the strain number); assay type: cell-based; conditions: Gram-negative, MH broth, 37 °C, 18 h, mean of three independent experiments in duplicates
Procedure: as §1

[3] = test system: Aeromonas sobria; test: microbe, parasite or virus in culture; assay type: cell-based; conditions: Aeromonas sobria, 18 h, read-out: MIC Aeromonas sobria
Procedure: as §1

[4] = test system: Aeromonas veronii; test: microbe, parasite or virus in culture; assay type: cell-based; conditions: Aeromonas veronii, 18 h, read-out: MIC Aeromonas veronii
Procedure: as §1

[5] = test system: Bacillus subtilis 08042313; test: microbe, parasite or virus in culture; assay type: cell-based; conditions: Bacillus subtilis, 08042313, 18 h, read-out: MIC Bacillus subtilis 08042313
Procedure: as §1

[6] = test system: Candida albicans 08030102; test: microbe, parasite or virus in culture; assay type: cell-based; conditions: Candida albicans, 08030102, 18 h, read-out: MIC Candida albicans 08030102
Procedure: as §1

[7] = test system: Candida glabrata 08A802; test: microbe, parasite or virus in culture; assay type: cell-based; conditions: Nakaseomyces glabratus, 08A802, 18 h, read-out: MIC Candida glabrata 08A802
Procedure: as §1

[8] = test system: E. Coli 08032823; test: microbe, parasite or virus in culture; assay type: cell-based; conditions: Escherichia coli, 18 h, read-out: MIC E. Coli 08032823
Procedure: as §1

[9] = test system: Edwardsiella tarda; test: microbe, parasite or virus in culture; assay type: cell-based; conditions: Edwardsiella tarda, 18 h, read-out: MIC Edwardsiella tarda
Procedure: as §1

[10] = test system: Enterococcus faecium 08052315; test: microbe, parasite or virus in culture; assay type: cell-based; conditions: Enterococcus faecium, 08052315, 18 h, read-out: MIC Enterococcus faecium 08052315
Procedure: as §1

[11] = test system: Escherichia coli ATCC25922; test: microbe, parasite or virus in culture; assay type: cell-based; conditions: Escherichia coli, ATCC25922, 18 h, read-out: MIC Escherichia coli ATCC25922
Procedure: as §1

[12] = test system: K. Pneumoniae 08031012; test: microbe, parasite or virus in culture; assay type: cell-based; conditions: Klebsiella pneumoniae, 18 h, read-out: MIC K. Pneumoniae 08031012
Procedure: as §1

[13] = test system: K. Pneumoniae 08040202; test: microbe, parasite or virus in culture; assay type: cell-based; conditions: Klebsiella pneumoniae, 18 h, read-out: MIC K. Pneumoniae 08040202
Procedure: as §1

[14] = test system: Nocardia asteroides 08052412; test: microbe, parasite or virus in culture; assay type: cell-based; conditions: Nocardia asteroides, 08052412, 18 h, read-out: MIC Nocardia asteroides 08052412
Procedure: as §1

[15] = test system: P. Aeruginosa 08021015; test: microbe, parasite or virus in culture; assay type: cell-based; conditions: Pseudomonas aeruginosa, 18 h, read-out: MIC P. Aeruginosa 08021015
Procedure: as §1

[16] = test system: Proteus mirabilis 1376; test: microbe, parasite or virus in culture; assay type: cell-based; conditions: Proteus mirabilis, 1376, 18 h, read-out: MIC Proteus mirabilis 1376
Procedure: as §1

[17] = test system: S. Aureus 08032615; test: microbe, parasite or virus in culture; assay type: cell-based; conditions: Staphylococcus aureus, 18 h, read-out: MIC S. Aureus 08032615
Procedure: as §1

[18] = test system: S. Aureus 08032706; test: microbe, parasite or virus in culture; assay type: cell-based; conditions: Staphylococcus aureus, 18 h, read-out: MIC S. Aureus 08032706
Procedure: as §1

[19] = test system: S. Aureus 08032810; test: microbe, parasite or virus in culture; assay type: cell-based; conditions: Staphylococcus aureus, 18 h, read-out: MIC S. Aureus 08032810
Procedure: as §1

[20] = test system: S. Maltophilia 090223; test: microbe, parasite or virus in culture; assay type: cell-based; conditions: Stenotrophomonas maltophilia, 18 h, read-out: MIC S. Maltophilia 090223
Procedure: as §1

[21] = test system: Shigella dysenteriae 0804203; test: microbe, parasite or virus in culture; assay type: cell-based; conditions: Shigella dysenteriae, 0804203, 18 h, read-out: MIC Shigella dysenteriae 0804203
Procedure: as §1

[22] = test system: Vibrio brasiiensis; test: microbe, parasite or virus in culture; assay type: cell-based; conditions: Vibrio, 18 h, read-out: MIC Vibrio brasiiensis
Procedure: as §1

[23] = test system: Vibrio cholerae; test: microbe, parasite or virus in culture; assay type: cell-based; conditions: Vibrio cholerae, 18 h, read-out: MIC Vibrio cholerae
Procedure: as §1

[24] = test system: Vibrio harveyi; test: microbe, parasite or virus in culture; assay type: cell-based; conditions: Vibrio harveyi, 18 h, read-out: MIC Vibrio harveyi
Procedure: as §1

[25] = test system: E. Coli 08032813; test: MIC, two-fold broth microdilution; assay type: cell-based; conditions: Escherichia coli, 18 h, read-out: MIC E. Coli 08032813
Procedure, shortened: (§2)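 MH broth, 2-fold serial peptide dilution; inoculum 10^6 CFU/mL before equal-volume mixing. 37 °C, 18 h, gentle shaking, A595 read. MIC = no-growth endpoint, mean of 3 independent runs.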

[26] = test system: Staphylococcus epidermidis; test: MIC, two-fold broth microdilution; assay type: cell-based; conditions: Staphylococcus epidermidis, 18 h, read-out: MIC Staphylococcus epidermidis
Procedure, shortened: as §2

[27] = test system: Vibrio Parahaemolyticus; test: MIC, two-fold broth microdilution; assay type: cell-based; conditions: Vibrio parahaemolyticus, 18 h, read-out: MIC Vibrio Parahaemolyticus
Procedure, shortened: as §2

[28] = test system: 08030209; test: microbe, parasite or virus in culture; assay type: cell-based, Arcyria cinerea; conditions: Arcyria cinerea, 18 h, read-out: MIC Arcyria cinerea 08030209
Procedure: as §1

[29] = test system: E. coli 08040726; test: Bacterial killing kinetic assay, colony counting; assay type: cell-based
Procedure: The bacterial killing kinetics of the hybrid peptides against E. coli 08040726 was determined by counting the changes in the viable bacterial clones after peptide treatment. The experiment was carried out according to the method described previously with minor modifications. Fresh colonies of the bacteria were incubated in MH broth at 37 °C for 12 h and diluted to 10^6 CFU/in fresh MH broth. The hybrid peptide was added to the bacterial suspension with a final concentration of 1x and 5x corresponding MICs, and incubated at 37 °C for 0, 10, 20, 30, 45, 60, 90, 120, and 180 mins. At each time point, aliquots (50 μL) were removed and diluted with fresh MH broth for 1000 times. […] of the dilutions were coated on MH agar plates, incubated overnight at 37 °C, and the viable colonies were counted. Ampicillin was used as positive control and sterile deionized water was used as negative control.

CC1(C)S[C@@H]2[C@H](NC(=O)[C@H](N)c3ccccc3)C(=O)N2[C@H]1C(=O)O [Ampicillin, reference compound]
MIC E. coli 08040726 [1]: 9.38 µg/mL (≈ 26.8 µM) | MIC E. coli 08040726 ([1]; listed as ampicillin): 0.12 µg/mL (≈ 0.343 µM) | MIC E. Coli 08040726 (second line with this strain number) [2]: — (no detectable activity in MIC assay in dose of 200 µg/mL or in trypsin inhibition assay at concentration of 160 μg/mL) | MIC [3]: > 200 µg/mL | MIC [4]: > 200 µg/mL | MIC [5]: 75 µg/mL (≈ 215 µM) | MIC [6]: 18.8 µg/mL (≈ 53.7 µM) | MIC [7]: 18.8 µg/mL (≈ 53.7 µM) | MIC [8]: > 200 µg/mL | MIC [9]: > 200 µg/mL | MIC [10]: > 200 µg/mL | MIC [11]: 4.69 µg/mL (≈ 13.4 µM) | MIC [12]: > 200 µg/mL | MIC [13]: > 200 µg/mL | MIC [14]: > 200 µg/mL | MIC [15]: 9.38 µg/mL (≈ 26.8 µM) | MIC [16]: 75 µg/mL (≈ 215 µM) | MIC [17]: 9.38 µg/mL (≈ 26.8 µM) | MIC [18]: 18.8 µg/mL (≈ 53.7 µM) | MIC [19]: > 200 µg/mL | MIC [20]: > 200 µg/mL | MIC [21]: 75 µg/mL (≈ 215 µM) | MIC [22]: > 200 µg/mL | MIC [23]: > 200 µg/mL | MIC [24]: 37.5 µg/mL (≈ 107 µM) | MIC [25]: > 200 µg/mL | MIC [26]: > 200 µg/mL | MIC [27]: 18.8 µg/mL (≈ 53.7 µM) | MIC [28]: > 200 µg/mL | time of killing toward E. coli ([29]; 1xMIC): 6 h | time of killing toward E. coli ([29]; 5xMIC): 3 h
